# Measured values: US20100249071A1, “Modulators of S1P and Methods of Making And Using” (Exelixis, Inc., priority 2009, published 2010)
# Read-outs that look alike come from different tables or passages of the source.
# Key:
# [1] = target: T1, S1P3 (Homo sapiens, UniProt Q99500); assay: S1P3 Tango β-arrestin recruitment assay in HEK293 cells (Assay 5); assay type: cell-based
# T1 construct: host or cells: HEK293 (transient transfection)
# Summary of the method: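 HEK293 cells transiently expressing S1P3 fused via TEV-cleavable linker to tTA, with β-arrestin2–TEV, treated 16-18 h at 37 °C with compounds (top 10 μM, 10-point 3-fold, 1% DMSO). Luciferase reporter luminescence normalised to DMSO background and 5 μM S1P control as percent activity; EC50 from concentration-response curves.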
# [2] = target: T2, hS1P1R (hEdg1) membrane protein (Homo sapiens, UniProt P21453); assay: hS1P1R GTPγS binding assay (Assay 3a); assay type: biochemical
# T2 construct: purchased Lonza
# T2 sequence (P21453 whole entry): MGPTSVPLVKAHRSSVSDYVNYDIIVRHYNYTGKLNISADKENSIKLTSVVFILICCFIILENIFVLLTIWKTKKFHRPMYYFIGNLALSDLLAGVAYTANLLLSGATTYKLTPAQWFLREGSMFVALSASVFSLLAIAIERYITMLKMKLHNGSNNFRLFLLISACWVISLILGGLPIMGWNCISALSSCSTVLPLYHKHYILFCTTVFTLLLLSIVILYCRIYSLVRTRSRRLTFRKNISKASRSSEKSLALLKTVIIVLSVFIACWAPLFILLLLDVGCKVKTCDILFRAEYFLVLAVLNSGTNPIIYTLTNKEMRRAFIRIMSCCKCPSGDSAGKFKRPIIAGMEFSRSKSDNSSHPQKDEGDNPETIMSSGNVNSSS
# Summary of the method: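 Membranes (4 μg) expressing hS1P1R incubated 1 h at room temperature with 30 μM GDP, 0.1 nM [^35S]GTPγS, 0.25% fatty acid free BSA and serially diluted agonist in Tris-HCl pH 7.9/NaCl/MgCl2/EGTA buffer. Bound [^35S]GTPγS captured on WGA SPA beads (further 1 h) and counted.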
# [3] = target: T3, S1P1 (Homo sapiens, UniProt P21453); assay: Tango β-arrestin recruitment assay in U2OS cells (Assay 2b); assay type: cell-based; conditions: read-out: Assay 2b EC50
# T3 construct: host or cells: U2OS
# T3 sequence (P32121 whole entry): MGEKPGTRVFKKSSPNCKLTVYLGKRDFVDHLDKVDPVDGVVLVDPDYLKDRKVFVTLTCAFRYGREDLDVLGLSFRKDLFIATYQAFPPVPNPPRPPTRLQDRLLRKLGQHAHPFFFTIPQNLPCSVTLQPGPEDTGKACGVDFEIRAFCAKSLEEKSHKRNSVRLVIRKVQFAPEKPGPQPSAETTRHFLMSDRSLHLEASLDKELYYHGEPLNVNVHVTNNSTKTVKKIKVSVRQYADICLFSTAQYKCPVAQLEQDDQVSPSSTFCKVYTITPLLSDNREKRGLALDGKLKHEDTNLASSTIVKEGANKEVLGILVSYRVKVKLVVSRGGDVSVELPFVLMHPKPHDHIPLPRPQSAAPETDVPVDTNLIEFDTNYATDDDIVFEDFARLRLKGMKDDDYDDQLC
# T3 sequence (P21453 whole entry): as the sequence (P21453 whole entry) above
# Summary of the method: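 In this agonist-mode Tango assay, U2OS cells carrying S1P1 and the reporter were serum-starved 48 h, then exposed overnight at 37 °C to compound (10 points, 3-fold, top 1 μM, 1% DMSO). β-Lactamase F460/F530 ratio was normalized to 1 μM S1P, and EC50 was fitted.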
# [4] = target: T4, hS1PR5 (hEdg8) membrane protein (Homo sapiens, UniProt Q9H228); assay: hS1P5R GTPγS binding assay (Assay 4); assay type: biochemical
# T4 construct: expressed in transfected cells; host or cells: CHO
# T4 sequence (Q9H228 whole entry): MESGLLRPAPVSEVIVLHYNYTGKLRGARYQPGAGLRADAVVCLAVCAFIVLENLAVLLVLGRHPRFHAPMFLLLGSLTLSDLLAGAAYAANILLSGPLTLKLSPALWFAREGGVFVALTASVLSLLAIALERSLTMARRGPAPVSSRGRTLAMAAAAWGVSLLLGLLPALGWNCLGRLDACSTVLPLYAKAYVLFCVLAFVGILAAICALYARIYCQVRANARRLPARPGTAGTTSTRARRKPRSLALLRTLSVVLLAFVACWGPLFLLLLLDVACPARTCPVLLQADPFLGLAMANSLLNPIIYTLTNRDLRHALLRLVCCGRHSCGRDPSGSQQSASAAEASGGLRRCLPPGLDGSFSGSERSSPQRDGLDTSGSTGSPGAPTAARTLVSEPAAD
# Summary of the method: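 Membranes (5 μg) from CHO cells expressing hS1PR5, incubated 1 h at room temperature with 30 μM GDP, 0.1 nM [35S]GTPγS, 0.25% fatty acid free BSA and serially diluted compound in pH 7.9 Tris buffer with MgCl2. WGA SPA beads added for another 1 h, then bound [35S]GTPγS counted by scintillation.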
# [5] = * = rEC50 measured rather than EC50, read-out: Assay 5 rEC50 (relative EC50, cells marked *)
# T1 sequence (P32121 whole entry): as the sequence (P32121 whole entry) above
# T1 sequence (Q99500 whole entry): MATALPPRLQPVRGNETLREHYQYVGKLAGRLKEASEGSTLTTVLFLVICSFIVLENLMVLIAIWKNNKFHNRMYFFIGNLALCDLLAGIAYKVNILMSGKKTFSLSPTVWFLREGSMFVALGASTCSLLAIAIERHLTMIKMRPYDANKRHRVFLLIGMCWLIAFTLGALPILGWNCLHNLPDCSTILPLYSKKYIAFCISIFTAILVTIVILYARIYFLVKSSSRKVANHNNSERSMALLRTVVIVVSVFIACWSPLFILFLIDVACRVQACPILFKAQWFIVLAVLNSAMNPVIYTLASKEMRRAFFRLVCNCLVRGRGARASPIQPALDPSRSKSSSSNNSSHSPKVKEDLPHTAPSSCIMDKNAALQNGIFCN
SMILES,EC50 ([1]; read-out: Assay 5 EC50),EC50 [2],EC50 [3],EC50 [4],"EC50 [1, 5]"
"CC(C)Nc1ccc(-c2nnc(-c3cc(F)c(OC[C@@H](N)CO)cc3Cl)s2)cc1Cl [Entry 45, (2S)-2-amino-3-{[5-chloro-4-(5-{3-chloro-4-[(1-methylethyl)amino]phenyl}-1,3,4-thiadiazol-2-yl)-2-fluorophenyl]oxy}propan-1-ol]",–,≤ 10 nM,≤ 10 nM,10 to 50 nM,> 250 nM
"CC(C)Nc1ncc(-c2nnc(-c3cc(F)c(OC[C@H](N)CO)cc3Cl)s2)cn1 [Entry 89, (2R)-2-amino-3-{[5-chloro-2-fluoro-4-(5-{2-[(1-methylethyl)amino]pyrimidin-5-yl}-1,3,4-thiadiazol-2-yl)phenyl]oxy}propan-1-ol]",> 10000 nM,50 to 250 nM,10 to 50 nM,250 to 2800 nM,–
"CC(C)Oc1ccc(-c2nnc(-c3cc(F)c(OC[C@@H](N)COP(=O)(O)O)cc3Cl)s2)cc1Cl [Entry 16, (2R)-2-amino-3-{[5-chloro-4-(5-{3-chloro-4-[(1-methylethyl)oxy]phenyl}-1,3,4-thiadiazol-2-yl)-2-fluorophenyl]oxy}propyl dihydrogen phosphate]",–,≤ 10 nM,≤ 10 nM,10 to 50 nM,≤ 250 nM
"Cc1nc(-c2nnc(-c3cc(F)c(OC[C@H](N)[C@@H](C)O)cc3Cl)s2)ccc1NC(C)C [Entry 103, (2R,3S)-3-amino-4-{[5-chloro-2-fluoro-4-(5-{6-methyl-5-[(1-methylethyl)amino]pyridin-2-yl}-1,3,4-thiadiazol-2-yl)phenyl]oxy}butan-2-ol]",> 250 nM,10 to 50 nM,10 to 50 nM,10 to 50 nM,–
"CC(C)Oc1ccc(-c2nnc(-c3cc(F)c(OC[C@H](N)CO)c(Cl)c3)s2)cc1Cl [Entry 40, (2R)-2-amino-3-{[2-chloro-4-(5-{3-chloro-4-[(1-methylethyl)oxy]phenyl}-1,3,4-thiadiazol-2-yl)-6-fluorophenyl]oxy}propan-1-ol]",> 10000 nM,≤ 10 nM,10 to 50 nM,10 to 50 nM,–
"CC(C)Oc1ccc(-c2nnc(-c3cc(F)c(OC[C@H](N)[C@@H](C)O)cc3Cl)s2)cc1C#N [Entry 82, 5-[5-(4-{[(2S,3R)-2-amino-3-hydroxybutyl]oxy}-2-chloro-5-fluorophenyl)-1,3,4-thiadiazol-2-yl]-2-[(1-methylethyl)oxy]benzonitrile]",> 10000 nM,≤ 10 nM,≤ 10 nM,10 to 50 nM,–
"CC(C)Oc1ccc(-c2nnc(-c3cc(F)c(OC[C@H](N)COP(=O)(O)O)cc3Cl)s2)cc1Cl [Entry 13, (2S)-2-amino-3-{[5-chloro-4-(5-{3-chloro-4-[(1-methylethyl)oxy]phenyl}-1,3,4-thiadiazol-2-yl)-2-fluorophenyl]oxy}propyl dihydrogen phosphate]",≤ 250 nM,≤ 10 nM,≤ 10 nM,≤ 10 nM,–
"CC(C)Nc1ccc(-c2nnc(-c3cc(F)c(OC[C@@H](N)COP(=O)(O)O)cc3Cl)s2)cn1 [Entry 47, (2R)-2-amino-3-{[5-chloro-2-fluoro-4-(5-{6-[(1-methylethyl)amino]pyridin-3-yl}-1,3,4-thiadiazol-2-yl)phenyl]oxy}propyl dihydrogen phosphate]",≤ 250 nM,≤ 10 nM,≤ 10 nM,≤ 10 nM,–
"Cc1cc(-c2nnc(-c3cc(F)c(OC[C@@H](N)[C@@H](C)O)cc3Cl)s2)cc(NC(C)C)n1 [Entry 97, (2R,3R)-3-amino-4-{[5-chloro-2-fluoro-4-(5-{2-methyl-6-[(1-methylethyl)amino]pyridin-4-yl}-1,3,4-thiadiazol-2-yl)phenyl]oxy}butan-2-ol]",> 250 nM,≤ 10 nM,≤ 10 nM,50 to 250 nM,–
"COCCOc1ccc(-c2nnc(-c3cc(F)c(OC[C@H](N)CO)cc3Cl)s2)cc1C#N [Entry 78, 5-[5-(4-{[(2R)-2-amino-3-hydroxyporpyl]oxy}-2-chloro-5-fluorophenyl)-1,3,4-thiadiazol-2-yl]-2-{[2-(methyloxy)ethyl]oxy}benzonitrile]",> 10000 nM,50 to 250 nM,10 to 50 nM,250 to 2800 nM,–

# More lines, now with the values ahead:
EC50 ([1]; read-out: Assay 5 EC50),EC50 [2],EC50 [3],EC50 [4],"EC50 [1, 5]",SMILES
> 10000 nM,50 to 250 nM,≤ 10 nM,250 to 2800 nM,–,"CC(C)Nc1ccc(-c2nnc(-c3cc(F)c(OC[C@@H](N)[C@@H](C)O)cc3Cl)s2)cn1 [Entry 68, (2R,3R)-3-amino-4-{[5-chloro-2-fluoro-4-(5-{6-[(1-methylethyl)amino]pyridin-3-yl}-1,3,4-thiadiazol-2-yl)phenyl]oxy}butan-2-ol]"
> 10000 nM,10 to 50 nM,≤ 10 nM,250 to 2800 nM,–,"Cc1cc(-c2nnc(-c3cc(F)c(OC[C@@H](N)[C@@H](C)O)cc3Cl)s2)cnc1NC(C)C [Entry 67, (2R,3R)-3-amino-4-{[5-chloro-2-fluoro-4-(5-{5-methyl-6-[(1-methylethyl)amino]pyridin-3-yl}-1,3,4-thiadiazol-2-yl)phenyl]oxy}butan-2-ol]"
≤ 250 nM,≤ 10 nM,≤ 10 nM,≤ 10 nM,–,"CC(C)Oc1ccc(-c2nnc(-c3cc(F)c(OC[C@H](N)COP(=O)(O)O)cc3Cl)s2)cc1Br [Entry 29, (2S)-2-amino-3-{[4-(5-{3-bromo-4-[(1-methylethyl)oxy]phenyl}-1,3,4-thiadiazol-2-yl)-5-chloro-2-fluorophenyl]oxy}propyl dihydrogen phosphate]"
> 10000 nM,250 to 2800 nM,250 to 2800 nM,> 10000 nM,–,"CC(C)Nc1ccc(-c2nnc(-c3cc(F)c(OC[C@H](N)[C@H](C)O)cc3Cl)s2)cn1 [Entry 56, (2S,3S)-3-amino-4-{[5-chloro-2-fluoro-4-(5-{6-[(1-methylethyl)amino]pyridin-3-yl}-1,3,4-thiadiazol-2-yl)phenyl]oxy}butan-2-ol]"
> 10000 nM,≤ 10 nM,≤ 10 nM,10 to 50 nM,–,"CC(C)Nc1ccc(-c2nnc(-c3cc(F)c(OC[C@H](N)[C@@H](C)OP(=O)(O)O)cc3Cl)s2)cn1 [Entry 85, (1R,2S)-2-amino-3-{[5-chloro-2-fluoro-4-(5-{6-[(1-methylethyl)amino]pyridin-3-yl}-1,3,4-thiadiazol-2-yl)phenyl]oxy}-1-methylpropyl dihydrogen phosphate]"
≤ 250 nM,10 to 50 nM,≤ 10 nM,250 to 2800 nM,–,"CC(C)N(C)c1cc(-c2nnc(-c3cc(F)c(OCC(N)CO)cc3Cl)s2)cc(Cl)n1 (stereo not drawn) [Entry 5, 2-amino-3-{[5-chloro-4-(5-{2-chloro-6-[methyl(1-methylethyl)amino]pyridin-4-yl}-1,3,4-thiadiazol-2-yl)-2-fluorophenyl]oxy}propan-1-ol]"
> 10000 nM,≤ 10 nM,50 to 250 nM,10 to 50 nM,–,"Cc1cc(-c2nnc(-c3cc(F)c(OC[C@H](N)[C@H](C)O)cc3Cl)s2)ccc1OC(C)C [Entry 61, (2S,3S)-3-amino-4-{[5-chloro-2-fluoro-4-(5-{3-methyl-4-[(1-methylethyl)oxy]phenyl}-1,3,4-thiadiazol-2-yl)phenyl]oxy}butan-2-ol]"
–,≤ 10 nM,≤ 10 nM,≤ 10 nM,≤ 250 nM,"CC(C)Oc1ccc(-c2nnc(-c3cc(F)c(OC[C@@H](N)[C@H](C)OP(=O)(O)O)cc3Cl)s2)cc1Cl [Entry 64, (1S,2R)-2-amino-3-{[5-chloro-4-(5-{3-chloro-4-[(1-methylethyl)oxy]phenyl}-1,3,4-thiadiazol-2-yl)-2-fluorophenyl]oxy}-1-methylpropyl dihydrogen phosphate]"
> 10000 nM,10 to 50 nM,10 to 50 nM,50 to 250 nM,–,"CC(C)Oc1ccc(-c2nnc(-c3cc(F)c(OC[C@H](N)CO)cc3Cl)s2)nc1Cl [Entry 22, (2R)-2-amino-3-{[5-chloro-4-(5-{6-chloro-5-[(1-methylethyl)oxy]pyridin-2-yl}-1,3,4-thiadiazol-2-yl)-2-fluorophenyl]oxy}propan-1-ol]"
> 10000 nM,250 to 2800 nM,10 to 50 nM,250 to 2800 nM,–,"CC(C)Nc1ccc(-c2nnc(-c3cc(F)c(OC[C@H](N)[C@@H](C)O)cc3Cl)s2)cn1 [Entry 46, (2R,3S)-3-amino-4-{[5-chloro-2-fluoro-4-(5-{6-[(1-methylethyl)amino]pyridin-3-yl}-1,3,4-thiadiazol-2-yl)phenyl]oxy}butan-2-ol]"
> 10000 nM,≤ 10 nM,≤ 10 nM,10 to 50 nM,–,"CC(C)Oc1ccc(-c2nnc(-c3cc(F)c(OC[C@H](N)[C@H](C)O)cc3Cl)s2)cc1C#N [Entry 83, 5-[5-(4-{[(2S,3S)-2-amino-3-hydroxybutyl]oxy}-2-chloro-5-fluorophenyl)-1,3,4-thiadiazol-2-yl]-2-[(1-methylethyl)oxy]benzonitrile]"
